In US20080269155A1, “REMEDY OR PREVENTIVE FOR KIDNEY DISEASE AND METHOD OF DIAGNOSING KIDNEY DISEASE” (TORAY INDUSTRIES INC., priority 2002, published 2008):

How the values were obtained:
nephritis rat models = experiment: Nephritis rat model induced by anti-glomerular basement membrane antibody: kidney function markers and kidney pathology; format: in vivo; conditions: for urine protein: 24-hour urine on 7th day from induction
[1] = test system: casein kinase 2 α subunit; experiment: Western blot of casein kinase 2 α subunit protein in kidney tissue of nephritis rats given oligonucleotides; format: in vivo, rat; conditions: 12 μg/day into kidney tissue by Alzet pump from one day before induction to 7th day
Protocol: This example was carried out for studying the effect of administration of an antisense oligonucleotide against casein kinase 2 α subunit, so as to confirm the utility of the present invention. To rats (Wistar-Kyoto strain, male, body weight 190 to 210 g), rabbit anti-glomerular basement membrane antibody was intravenously administered (0.3 ml/kg) to induce nephritis. […] The nucleic acid molecules of the oligonucleotides were S-oligonucleotides containing phosphorothioate moieties, and a cationic liquid (Polyplus transfection) was used for making the uptake of the oligonucleotide easier. More particularly, the groups used in the experiment were normal group (normal rats to which the antisense oligonucleotide against casein kinase 2 α subunit and the antisense oligonucleotide were not administered, n=8), nephritis control group (nephritis rats to which the antisense oligonucleotide against casein kinase 2 α subunit and the antisense oligonucleotide were not administered, n=8), nephritis+antisense oligonucleotide against casein kinase 2 α subunit-administered group (group of the present invention, nephritis rats to which the antisense oligonucleotide against casein kinase 2 α subunit was administered, n=4), and nephritis+sense oligonucleotide of casein kinase 2 α subunit-administered group (negative control group, nephritis rats to which the sense oligonucleotide of casein kinase 2 α subunit was administered), totally four groups. On the 7th day from the induction, all rats were placed in metabolic cages, and urine excreted during 24 hours was collected and the amount of the urine was measured. The urine was then centrifuged at 3000 rpm for 15 minutes, and the urine protein in the supernatant was measured. Further, after the collection of urine, the kidneys were isolated, proteins were extracted from each kidney tissue by a conventional method, and the proteins (1 mg/ml, 20 μl) were electrophoresed (PAGERUN, ATTO, 40 mA, 84 min) on 12.5% polyacrylamide gel (PAGEL, ATTO). The electrophoresed proteins were blotted (100V, 90 min) on a PVDF membrane (Millipore). The membrane was blocked (Blocking Ace, Dainippon Pharmaceutical, 4° C., 1 hour), and washed three times (10 min) with PBS containing Tween 20. Then the membrane was incubated (at room temperature for 1 hour) with an anti-casein kinase 2 α subunit (originated from goat, Santa cruz, 100-fold diluted) as the primary antibody. […] After the incubation, the amounts of the casein kinase 2 α subunit protein were measured, respectively, using ECL reagent (Amersham). This measurement was carried out by taking photographs of the detected casein kinase 2 so as to make image files of the amount of the casein kinase 2 protein, and digitalizating the image file using a software NIH Image on Macintosh.

[2] = oligonucleotide 12 μg/day into kidney tissue, FIG. 2

Compound: Cc1cc(O)c2c(c1)C(=O)c1cc(O)cc(O)c1C2=O [3-methyl-1,6,8-trihydroxyanthraquinone]
- blood creatinine level (nephritis rat models; 20 mg/l kg body weight intraperitoneally once a day, 14th day from induction, FIG. 6): almost normalized
- urine protein (nephritis rat models; 20 mg/l kg body weight intraperitoneally once a day, FIG. 5): significantly decreased
- pathological finding of the kidney tissue (nephritis rat models; 20 mg/l kg body weight intraperitoneally once a day, hematoxylin-eosin-stained specimens): improvements in the glomeruli and in the renal tubule interstitium were observed

Compound: 5′-TGGGGTATCAATCAAGATGATTAC-3′ (chemistry not given here) [negative control]
- Protein Amount Ratio of Casein Kinase 2 α Subunit ([1]; no-oligonucleotide kidney = 1): did not decrease
- Protein Amount Ratio of Casein Kinase 2 α Subunit ([1]; no-oligonucleotide kidney = 1, listed as Sense Oligonucleotide): 1.07
- urine protein (nephritis rat models; [2]): did not significantly decrease

Compound: 5′-GTAATCATCTTGATTACCCCA-3′ (chemistry not given here)
- Protein Amount Ratio of Casein Kinase 2 α Subunit ([1]; no-oligonucleotide kidney = 1): prominently decreased
- Protein Amount Ratio of Casein Kinase 2 α Subunit ([1]; no-oligonucleotide kidney = 1, listed as Antisense Oligonucleotide): 0.45
- urine protein (nephritis rat models; [2]): significantly decreased

Compound: O=c1cc(-c2ccc(O)cc2)oc2cc(O)cc(O)c12 [apigenin]
- urine protein (nephritis rat models; apigenin 20 mg/l kg body weight intraperitoneally once a day, FIG. 4): significantly decreased
